In patent US20150148256A1, “BIOLUMINESCENCE IMAGING-BASED SCREENING ASSAY AND INHIBITORS OF ABCG2” (THE JOHNS HOPKINS UNIVERSITY, priority 2008, published 2015):
Structures can show the parent of a compound that is named as a salt.

molecular target: T1, ABCG2 (Homo sapiens, UniProt Q9UNQ0); assay: Bioluminescence imaging (BLI) assay in HEK293/ABCG2/fLuc cells; conditions: Table 2; HEK293/ABCG2/fLuc cells, compound approximately 17 μM, ~50 μg/mL D-luciferin, 40 min time point
T1 sequence (Q9UNQ0 1-655): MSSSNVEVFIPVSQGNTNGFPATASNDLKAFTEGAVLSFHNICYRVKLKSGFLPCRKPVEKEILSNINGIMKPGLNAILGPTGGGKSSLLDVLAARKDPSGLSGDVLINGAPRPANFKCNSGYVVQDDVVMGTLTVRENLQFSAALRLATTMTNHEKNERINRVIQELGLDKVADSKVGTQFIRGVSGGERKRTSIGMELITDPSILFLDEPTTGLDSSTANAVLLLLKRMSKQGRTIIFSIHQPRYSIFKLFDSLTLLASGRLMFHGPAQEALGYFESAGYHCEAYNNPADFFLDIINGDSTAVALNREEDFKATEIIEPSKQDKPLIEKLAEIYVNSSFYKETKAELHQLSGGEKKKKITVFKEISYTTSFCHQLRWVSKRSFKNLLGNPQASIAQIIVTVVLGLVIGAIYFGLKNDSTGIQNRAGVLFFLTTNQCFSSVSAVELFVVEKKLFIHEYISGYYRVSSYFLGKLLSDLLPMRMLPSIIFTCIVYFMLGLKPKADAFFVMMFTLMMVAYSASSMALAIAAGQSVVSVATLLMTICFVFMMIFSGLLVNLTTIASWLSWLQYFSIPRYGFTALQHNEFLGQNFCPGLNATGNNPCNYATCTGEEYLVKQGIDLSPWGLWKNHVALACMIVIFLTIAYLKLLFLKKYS
Procedure: HEK293/ABCG2/fLuc cells were plated into 96-well plates at a density of 4×10^4 cells/100 μL per well and were allowed to attach overnight. The following day, 10 μL of each compound or the control solvent was transferred from a compound library in a 96-well, high-throughput format into the wells using a multichannel pipette. […] Images were taken every 5 minutes for ˜1 h. Light output from each well was quantified at the 40 min time point after initiation of imaging, and the signal-to-background (S/B) ratio of the light output from each compound divided by that from the control well was calculated. This S/B ratio serves as an indicator of the potency of ABCG2 inhibition, the mechanism by which BLI signal is enhanced.
Images were taken every 5 min for ˜1 h, and light output from each well at the 40 min time point was chosen for quantification. The SB ratio of the light output from each compound divided by that from the control well was calculated. This ratio was used as an indicator of the potency of ABCG2 inhibition, the mechanism by which BLI signal is enhanced.
The BLI signal-enhancing effect of selected ABCG2 inhibitors was evaluated within the range of 0.001 μM-100 μM, with HEK293/ABCG2/fLuc cells and 50 μg/mL D-luciferin. The data obtained at 40 min after imaging commencement were chosen arbitrarily to be plotted (FIG. 3).

Compound | Fold (BLI enhancement, S/B ratio over control) [fold]
CC[C@H]1/C=C/C=C/C[C@@H](C)[C@H](O)[C@@](C)(O)C(=O)[C@@H](C)[C@H](O)[C@@H](C)C(=O)[C@@H](C)[C@H](O)[C@@H](C)/C=C/C(=O)O[C@@H]2[C@H](C)[C@H](CC1)O[C@]1(CC[C@H](C)[C@H](C[C@@H](C)O)O1)[C@H]2C [oligomycin] | 5.0
COS(=O)(=O)[O-].C[n+]1c2ccccc2nc2ccccc21 [phenazine methosulfate] | 2.8
O=C(O)CCCc1ccccc1 [phenylbutyric acid] | 2.1
COc1ccc(C(=O)c2c(C)n(CCN3CCOCC3)c3ccccc23)cc1 [pravadoline] | 2.7
C=C(C)[C@]12C[C@@H](C)[C@@]34O[C@](Cc5ccccc5)(O[C@@H]1[C@@H]3C=C(COC(=O)Cc1ccc(O)c(OC)c1)C[C@]1(O)C(=O)C(C)=C[C@@H]41)O2 [resiniferatoxin] | 4.2
O=C(Nc1ccccc1)c1ccccc1O [salicylanilide] | 2.2
CSc1ccc2c(c1)N(CCC1CCCCN1C)c1ccccc1S2 (centres unmarked) [th oridaz ne] | 2.5
antimycin | 2.3
estrone hemisuccinate | 5.4
hesperidin methyl chalcone | 2.1
ivermect n | 4.3

same assay, conditions: Table 4; approximately 17 μM, 40 min time point

Compound | Fold (BLI enhancement), previously unknown compounds [fold]
CC[C@H]1/C=C/C=C/C[C@@H](C)[C@H](O)[C@@](C)(O)C(=O)[C@@H](C)[C@H](O)[C@@H](C)C(=O)[C@@H](C)[C@H](O)[C@@H](C)/C=C/C(=O)O[C@@H]2[C@H](C)[C@H](CC1)O[C@]1(CC[C@H](C)[C@H](C[C@@H](C)O)O1)[C@H]2C [oligomycin] | 5.0
estrone hemisuccinate | 5.4

same assay, conditions: human

Compound | Fold (BLI enhancement), known compounds [fold] | Fold (BLI enhancement, S/B ratio over control) [fold]
COC(=O)C1=C(C)NC(C)=C(C(=O)OCCCN2CCC(c3ccccc3)(c3ccccc3)CC2)[C@H]1c1cccc([N+](=O)[O-])c1 [niguldipine] | 5.9 | 5.9
COc1ccc(Cc2nccc3cc(OC)c(OC)cc23)cc1OC [papaverine hydrochloride] |  | 2.0
C[C@]12Cc3c[nH]nc3C[C@@H]1CC[C@@H]1[C@@H]2CC[C@@]2(C)[C@H]1CC[C@]2(C)O [stanozolol] |  | 2.8

same assay, conditions: human, 40 min, 17 μM

Compound | Fold (BLI enhancement, S/B ratio over control) [fold] | BLI signal enhancement [fold] | fold (BLI enhancement), additional previously known ABCG2 inhibitors [fold] | Fold (BLI enhancement), known compounds [fold] | Fold (BLI enhancement), previously unknown compounds [fold]
COc1ccccc1N1CCN(CC(O)COc2cccc3ccccc23)CC1 (centres unmarked) [naftopidil] | 2.4 |  |  |  | 
O=C1C[C@@H](c2ccc(O)cc2)Oc2cc(O)cc(O)c21 [naringenin] |  | 1.9 | 1.9 |  | 
CCc1nn(CCCN2CCN(c3cccc(Cl)c3)CC2)c(=O)n1CCOc1ccccc1 [nefazodone hydrochloride] | 2.6 |  |  |  | 
Cc1c(O)cccc1C(=O)N[C@@H](CSc1ccccc1)[C@H](O)CN1C[C@H]2CCCC[C@H]2C[C@H]1C(=O)NC(C)(C)C [nelfinavir mesylate] | 6.1 |  |  | 6.1 | 
COC(=O)C1=C(C)NC(C)=C(C(=O)OCCN(C)Cc2ccccc2)C1c1cccc([N+](=O)[O-])c1 (centres unmarked) [nicardipine] | 2.9 |  | 2.9 |  | 
CO[C@]12C[C@@H](COC(=O)c3cncc(Br)c3)CN(C)[C@@H]1Cc1cn(C)c3cccc2c13 [nicergoline] | 2.0 |  |  |  | 
COCCOC(=O)C1=C(C)NC(C)=C(C(=O)OC(C)C)C1c1cccc([N+](=O)[O-])c1 (centres unmarked) [nimodipine] | 2.8 |  | 2.8 |  | 
COC(=O)C1=C(C)NC(C)=C(C(=O)OCC(C)C)C1c1ccccc1[N+](=O)[O-] (centres unmarked) [nisoldipine] | 3.2 |  |  |  | 
COc1ccc2c(c1OC)C(=O)O[C@@H]2[C@H]1c2c(cc3c(c2OC)OCO3)CCN1C [noscapine hydrochloride] | 2.3 |  |  |  | 
Cc1c(-c2cnccn2)ssc1=S [oltipraz] | 3.2 |  |  |  | 
Cc1nccn1CC1CCc2c(c3ccccc3n2C)C1=O (centres unmarked) [ondansetron hydrochloride] | 2.7 |  |  |  | 
COC(=O)Nc1nc2ccc([S+]([O-])c3ccccc3)cc2[nH]1 (centres unmarked) [oxfendazole] | 2.1 |  |  |  | 
CCCCCCn1c(=O)c2c(ncn2C)n(C)c1=O [pentifylline] | 3.8 |  |  |  | 
N#Cc1ccc2c(c1)N(CCCN1CCC(O)CC1)c1ccccc1S2 [periciazine] |  |  |  |  | 6.3
OCCN1CCN(CCCN2c3ccccc3Sc3ccc(Cl)cc32)CC1 [perphenazine] | 4.2 |  |  |  | 
COc1cc(O)c2c(c1)C(=O)c1cc(C)cc(O)c1C2=O [physcion] | 2.1 |  |  |  | 
O=c1[nH]c2ccccc2n1C1CCN(CCCC(c2ccc(F)cc2)c2ccc(F)cc2)CC1 [pimozide] | 2.0 |  |  |  | 
CC(=O)c1ccc2c(c1)N(CCCN1CCC(CCO)CC1)c1ccccc1S2 [piperacetazine] | 5.8 |  |  |  | 5.8

Compound | Fold (BLI enhancement, S/B ratio over control) [fold] | BLI signal enhancement [fold] | fold (BLI enhancement), additional previously known ABCG2 inhibitors [fold] | Fold (BLI enhancement), known compounds [fold] | Fold (BLI enhancement), previously unknown compounds [fold]
O=C(C1CCCCC1)N1CC(=O)N2CCc3ccccc3C2C1 (centres unmarked) [praziquantel] | 3.3 |  |  |  | 
CN1CCCN=C1/C=C/c1cccs1 [pyrantel] | 3.9 |  |  |  | 
O=C1c2ccc(O)c(O)c2C(=O)c2c(O)ccc(O)c21 [quinalizarin] | 3.0 |  |  |  | 
CC(=O)SCC(Cc1ccccc1)C(=O)NCC(=O)OCc1ccccc1 (centres unmarked) [racecadotril] | 2.0 |  |  |  | 
COC(=O)[C@H]1[C@H]2C[C@@H]3c4[nH]c5cc(OC)ccc5c4CCN3C[C@H]2C[C@@H](OC(=O)c2cc(OC)c(OC)c(OC)c2)[C@@H]1OC [reserpine] | 5.4 |  |  | 5.4 | 
O=C(O)c1cc(O)c2c(c1)C(=O)c1cccc(O)c1C2=O [rhein] | 3.1 |  |  |  | 
CC(C)c1nc(N(C)S(C)(=O)=O)nc(-c2ccc(F)cc2)c1/C=C/[C@@H](O)C[C@@H](O)CC(=O)O [rosuvastatin] | 3.9 |  |  |  | 
OCc1cc(C(O)CNCCCCCCOCCCCc2ccccc2)ccc1O (centres unmarked) [salmeterol xinafoate] | 2.4 |  |  |  | 
CC(C)(C)NC(=O)[C@@H]1C[C@@H]2CCCC[C@@H]2CN1C[C@@H](O)[C@H](Cc1ccccc1)NC(=O)[C@H](CC(N)=O)NC(=O)c1ccc2ccccc2n1 [saquinavir mesylate] | 4.9 |  | 4.9 |  | 
CCCc1nn(C)c2c(=O)[nH]c(-c3cc(S(=O)(=O)N4CCN(C)CC4)ccc3OCC)nc12 [sildenafil] | 6.6 |  |  |  | 6.6
CCC(C)(C)C(=O)O[C@H]1C[C@@H](C)C=C2C=C[C@H](C)[C@H](CC[C@@H]3C[C@@H](O)CC(=O)O3)[C@H]21 [simvastatin] | 2.7 |  |  |  | 
COc1cc([S+](C)[O-])ccc1-c1nc2ncccc2[nH]1 (centres unmarked) [sulmazole] | 3.0 |  |  |  | 
CCCCCNC(=N)N/N=C/c1c[nH]c2ccc(OC)cc12 [tegaserod maleate] | 3.1 |  |  |  | 
CCCc1nc2c(C)cc(-c3nc4ccccc4n3C)cc2n1Cc1ccc(-c2ccccc2C(=O)O)cc1 [telmisartan] | 2.0 |  |  |  | 
CC(C)(C)c1ccc(C(O)CCCN2CCC(C(O)(c3ccccc3)c3ccccc3)CC2)cc1 (centres unmarked) [terfenadine] | 4.2 |  |  |  | 
Cc1ccc(C(=O)C(C)CN2CCCCC2)cc1 (centres unmarked) [tolperisone hydrochloride] | 2.1 |  |  |  | 
CN(C)CCOc1ccc(/C(=C(/CCCl)c2ccccc2)c2ccccc2)cc1 [toremifene] | 2.3 |  |  |  | 
CCCc1nc(C)c2c(=O)[nH]c(-c3cc(S(=O)(=O)N4CCN(CC)CC4)ccc3OCC)nn12 [vardenafil] | 3.3 |  |  |  | 

system: ABCG2-overexpressing NCI-H460/MX20 cells; assay: not given; conditions: after two days of incubation (data not shown)

Compound | resensitization of H460/MX20 cells to MTX
CCCCCCCCCCCCOCCOCCOCCOCCO [brij, Brij 30] | resensitize H460/MX20 cells to MTX significantly
